Tested on: endotoxemic pigs (E. coli endotoxin infusion)
[1] = during the endotoxemic period, versus fat emulsion

**Q.** How did the “deaths from hypotension and/or release of gut bacteria into the bloodstream” value (already anaesthetised endotoxaemic pigs) turn out when `CC(C)c1cccc(C(C)C)c1O` [propofol, 2,6-diisopropylphenol] was run?
**A.** No deaths

**Q.** What about the “arterial carbon dioxide tension (PaCO2)” value [1] of the same molecule?
**A.** lower

**Q.** What about the “arterial oxygen tension (PaO2)” value [1] of the same molecule?
**A.** higher

**Q.** And the “counteracting endotoxin induced deterioration of arterial oxygen tension (PaO2)” value (endotoxaemic pigs)?
**A.** effective
